# Source: US11590119B2, “(S)-2-(1-(5-(cyclohexylcarbamoyl)-6-(propylthio)pyridin-2-yl)piperidin-3-yl)acetic acid for use in medicine” (University of Leeds, priority 2019, dated 2023)
# What was measured:
# [1] = tested on: 11β-HSD; conditions: mice, topical treatment, oral corticosterone; cited from earlier work
# [2] = molecular target: T1, 11β-HSD1 (Homo sapiens, UniProt P28845); experiment: 11β-HSD1 activity (conversion of cortisone to cortisol) in primary human dermal fibroblasts; type: cell-based; set-up: from tissue; host or cells: adipose tissue of abdominally obese healthy adult male volunteers
# Description: FIG. 5: 11β-HSD1 activity in primary human dermal fibroblasts.
# In order to investigate the effects, prevalence and relevance of 11β-HSD1 in human skin and diabetic wound healing the effects of the proinflammatory cytokine, IL-1β on human dermal fibroblasts (HDFs) in culture was assessed in the preclinical setting. […] In these experiments RU486 (mifepristone) was used as a competitive cortisol antagonist.
# [3] = tested on: 11β-HSD1 mRNA expression; experiment: 11β-HSD1 mRNA expression in cultured human dermal fibroblasts; type: cell-based; conditions: HDFs in culture; cortisol 24 h; IL-1β 10 ng/mL; cortisol 100 nM in combination
# [4] = tested on: HUVEC tubule formation; experiment: HUVEC tubule formation, in vitro model of angiogenesis; type: cell-based, human; conditions: IL-1β 10 ng/ml; cortisone 200 nM; AZD4017 1 μM with cortisone; biological n=1
# [5] = molecular target: T1, 11β-HSD1; conditions: abdominally obese healthy adult male volunteers, daily oral dosing
# Description: In more detail, a Phase I study using AZD4017 in abdominally obese healthy adult male volunteers involved an assessment of 11β-HSD1 inhibition in human adipose tissue as a function of time following daily oral dosing of the inhibitor (11β-HSD1 activity was assessed by an assay measuring the conversion of cortisone to cortisol in adipose tissue samples). […] Tachyphylaxis was also investigated with an additional AstraZeneca 11β-HSD1 inhibitor, AZD8329, from a different chemical series (see Morentin Gutierrez et al, Br J Pharmacol […], 172, 4806-16).
# FIG. 1: Conversion of ^3H cortisone [20 nM] to ^3H cortisol (%/100 mg adipose tissue) after repeated dosing of AZD4017.
# [6] = tested on: fibroblasts and endothelial cell co-culture; experiment: Angiogenesis co-culture assay with HDF conditioned media (tube length, branch points); type: cell-based, human; conditions: conditioned media of HDFs treated with IL-1β+200 nM cortisone+1 μM AZD4017, 7 days in culture
# Description: In order to further study the effects of AZD4017 on angiogenesis in a quantitative manner, a further related experiment to that described above was performed. In this model in vitro cultured human dermal fibroblasts were treated with a) 10 ng/ml IL-1β, b) IL-1β+100 nM cortisol, c) IL-1β+200 nM cortisone or d) IL-1β+cortisone+1 μM AZD4017 (selective 11β-HSD1 inhibitor).
# [7] = tested on: MMP7 and TGM2 expression; experiment: Protein profiling (Sciomics) and RNAseq of primary human dermal fibroblasts; type: cell-based; conditions: HDFs, IL-1β+cortisone+AZD4017, n=3
# From the text: Protein profiling (Sciomics) conducted on primary human dermal fibroblasts (HDF) treated with vehicle, IL-1β, IL-1β+cortisone or IL-1β+cortisone+the selective 11β HSD1 inhibitor AZD4017 (n=3, same HDF as for RNAseq experiments) identified a number of proteins regulated by 11β-HSD1. […] The proteins found to be regulated by 11β-HSD1 include MMP7 and TGM2. […] Regulation of MMP7 by GC has to the best of our knowledge not previously been reported (Velasco, J., et al., J Biol Chem, 2011. 286(29): p. 26016-27).
# [8] = tested on: skin wounds; experiment: Phase II trial in T2DM: wound gap diameter of punch biopsy wounds by OCT; type: in vivo, human
# From the text: FIG. 13: Wound healing in placebo (PBO) and AZD4017 (AZD) treated cohorts as evidenced by wound gap diameter of wounds inflicted at days 0 and 28 at days 2 and 30, respectively. Confidence intervals for measurements are provided to right.
# Both biopsies from visit 1 (day 0) and two biopsies from visit 4 (day 28) were imaged by OCT at Visits 2, 3, 5 and 6 as appropriate. Optical coherence tomography OCT (Greaves, N. S., et al., Br J Dermatol, 2014. 170(4): p. 840-50) has proven a useful tool for the evaluation of wound re-epithelialization. OCT uses light to capture sub-micrometre resolution, three-dimensional images from within biological tissue (e.g. skin). The method is based on low-coherence interferometry, typically employing near-infrared light. The use of relatively long wavelength light allows it to penetrate 1-2 mm into the tissue. In addition to wound diameter, collected images capture information on vascularization.
# The procedure takes approximately 2 minutes using a small probe applied to the skin. The procedure is non-invasive and pain-free. Image files (including enrolment number, visit number and date) were stored on the OCT machine until the end of the trial, then transferred to a secure server, compiled, analysed and values for wound diameter entered into the case report form (CRF).
# The initial wounds created by puncture at days 0 and 28, respectively, were 3 mm in diameter. Treatment with AZD4017 (400 mg, twice daily oral) was initiated on day 0 and maintained for 35 days.
# Thus administration of AZD4017 […] delivered a significant improvement in the rate of wound healing.
# [9] = tested on: epidermis; experiment: Phase II trial in T2DM: epidermal thickness by OCT; type: in vivo, human; conditions: day 35, 400 mg twice daily
# Description: FIG. 14: Epidermal thickness (μm) in the placebo (PBO) and AZD4017 (AZD) treated arms after 35 days.
# As noted above, glucocorticoid therapy is known to cause skin thinning and dispose patients to the development of chronic wounds. Epidermal thickness was measured by OCT at Visits 1 (day 0) and 6 (day 35, i.e. after 35 days of treatment with 400 mg AZD4017, twice daily). Results from these measurements are presented alongside the confidence interval in the measurements at day 35.
# [10] = tested on: stratum corneum; experiment: Phase II trial in T2DM: N tapes, tape stripping to a pre-specified TEWL; type: in vivo, human; conditions: after 4 weeks treatment
# Description: FIG. 16: The number of tapes (N tapes) required to achieve the equivalent amount of barrier disruption in the placebo (PBO) and AZD4017 (AZD) treated arms at day 28. Confidence intervals are presented to the right.
# A further way in which the skin quality of patients treated with AZD4017 was evaluated involved stripping of the skin with adhesive patches to achieve a consistent damage level as established by transepidermal water loss (TEWL), a measure of the permeability of the skin barrier.
# In more detail, evaporation of water from the skin occurs as part of normal skin metabolism. As barrier function is disrupted, water loss increases. The Tewameter® TM 300 probe (commercially available from Courage and Khazaka Electronic GmbH, 50829 Köln, Germany) measures the density gradient of the water evaporation from the skin by two pairs of sensors (temperature and relative humidity) inside a hollow cylinder. […]
# Adhesive patches (D-Squame® tapes, from D-Squame, Clinical and Derm LLC, Dallas, Tex., www.clinicalandderm.com) were used to gently remove the stratum corneum layers to a pre-specified TEWL (trans-epidermal water loss) rate from the lower inner forearm at Visits 1 and 4. […] At day, after 4 weeks treatment, the number of tapes required to induce the same level of damage on the skin as evaluated by this technique was 43% higher in the 11β-HSD1 inhibitor treated cohort than in the placebo arm.
# [11] = tested on: skin wounds; experiment: Phase II trial in T2DM: deep learning segmentation of OCT wound images; type: in vivo, human; conditions: day 30, 2 days after wounding at day 28, p<0.05
# From the text: FIG. 17: 2D OCT image of wound segmented into compartments. i) void; ii) intact tissue; iii) wound collagen; iv) wound with sponginess morphology; v) neoepidermis; vi) clot & vii) blood (in liquid form).
# FIG. 18: Figure illustrating the improved amount of A) neoepidermis and B) clot volume two days after wounding and after 30 days of treatment with AZD4017 (AZD) and placebo (PBO).
# To further understand the effects of AZD4017 in the wound healing process a deep learning based image processing method was developed for recognising different sub-tissue components from optical coherence tomography (OCT) images. The method was based on a u-net convolutional neural network (see Ronneberger O., Fischer P., Brox T. (2015) U-Net: Convolutional Networks for Biomedical Image Segmentation. In: Navab N., Hornegger J., Wells W., Frangi A. (eds) Medical Image Computing and Computer-Assisted Intervention—MICCAI 2015. MICCAI 2015. Lecture Notes in Computer Science, vol 9351. Springer, Cham. https://doi.org/10.1007/978-3-319-24574-4_28). […]
# Further morphological image processing was then performed to the labelled image as post processing processes to show meaningful continuous regions of sub-tissue components. As a result, the area (mm^2) of each sub-tissue components could be calculated. In addition the volume (mm^3) of each sub-tissue components across 120 slices of tissues were also determined. […]
# [12] = Phase II trial in T2DM: adverse effects; type: in vivo, human; conditions: T2DM patients, 400 mg twice daily oral, 35 days
# From the text: AD4017 is thus identified for the first time as a safe and effective agent with therapeutic and prophylactic potential for the treatment of wound healing in patient populations susceptible to the development of chronic wounds and the complications associated therewith.
# [13] = molecular target: T1, 11β-HSD1; conditions: cited from earlier work
# T1 sequence (P28845 whole entry): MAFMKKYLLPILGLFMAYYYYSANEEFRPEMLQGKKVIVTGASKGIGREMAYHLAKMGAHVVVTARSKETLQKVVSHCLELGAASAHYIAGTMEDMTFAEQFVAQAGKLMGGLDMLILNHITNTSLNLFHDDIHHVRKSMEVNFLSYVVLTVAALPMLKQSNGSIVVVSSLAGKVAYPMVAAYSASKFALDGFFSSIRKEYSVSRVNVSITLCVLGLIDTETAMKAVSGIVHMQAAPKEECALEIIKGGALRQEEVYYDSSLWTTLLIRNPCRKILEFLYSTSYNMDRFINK
molecule,measurement,setting,value
"CC1(C)[C@@H](OC(=O)CCC(=O)O)CC[C@]2(C)[C@H]3C(=O)C=C4[C@@H]5C[C@@](C)(C(=O)O)CC[C@]5(C)CC[C@@]4(C)[C@]3(C)CC[C@@H]12 [carbenoxolone, reference compound]",effect on delay in wound healing caused by corticosteroid excess,[1],reverse the delay in wound healing
same,inhibition of conversion of E to F,"[2]; 25 μM, 18 h, HDFs pretreated with IL-1β and cortisol",did not significantly inhibit
"C[C@]12CCC(=O)C=C1CC[C@@H]1[C@@H]2[C@@H](O)C[C@@]2(C)[C@H]1CC[C@]2(O)C(=O)CO [cortisol, reference compound]",increase in 11β-HSD1 mRNA expression,[3],6 fold
IL-1β: interleukin 1β (pro-inflammatory cytokine),increase in 11β-HSD1 mRNA expression,[3],10 fold
same,tubule formation,[4],stimulate tubule formation
same,increase in conversion of cortisone (E) to cortisol (F) relative to untreated HDFs,"[2]; 24 h IL-1β pretreatment, conversion over 48 h",6 fold
"CCCSc1nc(N2CCC[C@@H](CC(=O)O)C2)ccc1C(=O)NC1CCCCC1 [AZD4017, (S)-2-(1-(5-(cyclohexylcarbamoyl)-6-(propylthio)pyridin-2-yl)piperidin-3-yl)acetic acid]",11β-HSD1 activity in adipose tissue relative to baseline,[5]; day 1,reduced 11β-HSD1 activity relative to baseline
same,net 11β-HSD1 activity in adipose tissue post-dose versus baseline level on day 0,[5]; day 9 post dose,still greater than the baseline level on day 0
same,tubule formation,[4],the same IL-1β stimulated tubule formation as observed in the absence of cortisone
same,"IL-1β stimulated tube formation (tube length, number of branch points)",[6],decreased the negative effects of cortisone/cortisol
same,MMP7 protein and gene expression,[7],downregulated MMP7
same,TGM2 protein and gene expression,[7],stimulate TGM2 protein and gene expression
same,mean wound gap diameter,"[8]; day 2, 3 mm wound inflicted at day 0, 400 mg twice daily oral from day 0",0.98 mm
same,improvement in the extent of healing relative to placebo arm,"[8]; day 2, wound inflicted at day 0",35%
same,mean wound gap,"[8]; day 30, 3 mm wound inflicted at day 28, after 4 weeks pretreatment",0.67 mm
same,improvement in the extent of healing relative to placebo arm,"[8]; day 30, wound inflicted at day 28",55%
same,epidermal depth greater than the placebo arm,[9],5.58 μm
same,"number of tapes required to induce the same level of damage, higher than in the placebo arm",[10],43%
same,volume of clots in the wound site compared to placebo,[11],statistical significant increases
same,volume of neoepidermis in the wound site compared to placebo,[11],statistical significant increases
same,adverse effects in the treatment cohort,[12],no significant adverse effects
same,cortisol levels in the adipose tissues,"[13]; after 9 days dosing, versus before dosing",higher than those measured before dosing commenced
same,inhibition of 11β-HSD1 activity in adipose tissue,"[13]; after 9 days of treatment, as quoted from Freude",not observed after 9 days of treatment
same,inhibition of 11β-HSD1 activity in adipose tissue vs baseline,"[13]; after single doses, as quoted from Freude",50%
same,effect on 11β-HSD1 enzyme activity and production of F (cortisol),"[2]; 1 μM, over 18 h, HDFs pretreated with IL-1β and cortisol",completely blocked the enzyme activity
"C[C@]12CCC(=O)C=C1CC[C@@H]1[C@@H]2C(=O)C[C@@]2(C)[C@H]1CC[C@]2(O)C(=O)CO [cortisone, reference compound]",tubule formation,[4],blocked
